Assay results as given in PubChem BioAssay AID1259407 (Chemical Carcinogenesis Research Information System (CCRIS), 2018).
The source made the active and inactive calls. No rule for the calls is given here.

Test system: CCRIS mutagenicity, Ames/micronucleus/aberration tests
Test: CCRIS mutagenicity studies
[1] = Test System: AMES SALMONELLA TYPHIMURIUM, Strain/Indicator: TA98, Metabolic Activation: NONE, Method: STANDARD PLATE
[2] = Test System: AMES SALMONELLA TYPHIMURIUM, Strain/Indicator: TA98, Metabolic Activation: RAT, LIVER, S-9, AROCLOR 1254, Method: STANDARD PLATE
[3] = Test System: AMES SALMONELLA TYPHIMURIUM, Strain/Indicator: TA100, Metabolic Activation: NONE, Method: STANDARD PLATE
[4] = Test System: AMES SALMONELLA TYPHIMURIUM, Strain/Indicator: TA100, Metabolic Activation: RAT, LIVER, S-9, AROCLOR 1254, Method: STANDARD PLATE
[5] = Test System: AMES SALMONELLA TYPHIMURIUM, Strain/Indicator: TA1535, Metabolic Activation: NONE, Method: STANDARD PLATE
[6] = Test System: AMES SALMONELLA TYPHIMURIUM, Strain/Indicator: TA1535, Metabolic Activation: RAT, LIVER, S-9, AROCLOR 1254, Method: STANDARD PLATE
[7] = Test System: AMES SALMONELLA TYPHIMURIUM, Strain/Indicator: TA1537, Metabolic Activation: NONE, Method: STANDARD PLATE
[8] = Test System: AMES SALMONELLA TYPHIMURIUM, Strain/Indicator: TA1537, Metabolic Activation: RAT, LIVER, S-9, AROCLOR 1254, Method: STANDARD PLATE
[9] = Test System: AMES SALMONELLA TYPHIMURIUM, Strain/Indicator: TA1538, Metabolic Activation: NONE, Method: STANDARD PLATE
[10] = Test System: AMES SALMONELLA TYPHIMURIUM, Strain/Indicator: TA1538, Metabolic Activation: RAT, LIVER, S-9, AROCLOR 1254, Method: STANDARD PLATE

Measured: mutagenic call

CCC[C@]1(O)CC[C@H]2[C@@H]3CC[C@H]4CC(=O)C[C@H](C)[C@]4(C)[C@H]3CC[C@@]21C
inactive: End Point: IN VITRO CHROMOSOMAL ABERRATIONS, Test System: HUMAN PERIPHERAL LYMPHOCYTES, Metabolic Activation: NONE inactive; negative | End Point: IN VITRO CHROMOSOMAL ABERRATIONS, Test System: HUMAN PERIPHERAL LYMPHOCYTES, Metabolic Activation: RAT, LIVER, S-9, AROCLOR 1254 inactive; negative | End Point: IN VIVO MICRONUCLEUS, Test System: BONE MARROW POLYCHROMATIC ERYTHROCYTES, Species: MOUSE, Strain/Sex: NMRI/MALE, FEMALE, Route: SUBCUTANEOUS INJECTION inactive; negative | Test System: AMES SALMONELLA TYPHIMURIUM, Strain/Indicator: TA98, Metabolic Activation: NONE, Method: PREINCUBATION inactive; negative | [1] inactive; negative | Test System: AMES SALMONELLA TYPHIMURIUM, Strain/Indicator: TA98, Metabolic Activation: RAT, LIVER, S-9, AROCLOR 1254, Method: PREINCUBATION inactive; negative | [2] inactive; negative | Test System: AMES SALMONELLA TYPHIMURIUM, Strain/Indicator: TA100, Metabolic Activation: NONE, Method: PREINCUBATION inactive; negative | [3] inactive; negative | Test System: AMES SALMONELLA TYPHIMURIUM, Strain/Indicator: TA100, Metabolic Activation: RAT, LIVER, S-9, AROCLOR 1254, Method: PREINCUBATION inactive; negative | [4] inactive; negative | Test System: AMES SALMONELLA TYPHIMURIUM, Strain/Indicator: TA1535, Metabolic Activation: NONE, Method: PREINCUBATION inactive; negative | [5] inactive; negative | Test System: AMES SALMONELLA TYPHIMURIUM, Strain/Indicator: TA1535, Metabolic Activation: RAT, LIVER, S-9, AROCLOR 1254, Method: PREINCUBATION inactive; negative | [6] inactive; negative | Test System: AMES SALMONELLA TYPHIMURIUM, Strain/Indicator: TA1537, Metabolic Activation: NONE, Method: PREINCUBATION inactive; negative | [7] inactive; negative | Test System: AMES SALMONELLA TYPHIMURIUM, Strain/Indicator: TA1537, Metabolic Activation: RAT, LIVER, S-9, AROCLOR 1254, Method: PREINCUBATION inactive; negative | [8] inactive; negative | Test System: AMES SALMONELLA TYPHIMURIUM, Strain/Indicator: TA1538, Metabolic Activation: NONE, Method: PREINCUBATION inactive; negative | [9] inactive; negative | Test System: AMES SALMONELLA TYPHIMURIUM, Strain/Indicator: TA1538, Metabolic Activation: RAT, LIVER, S-9, AROCLOR 1254, Method: PREINCUBATION inactive; negative | [10] inactive; negative | Test System: CHINESE HAMSTER V-79, Strain/Indicator: V-79 (HGPRT)/6-THIOGUANINE, Metabolic Activation: NONE inactive; negative | Test System: CHINESE HAMSTER V-79, Strain/Indicator: V-79 (HGPRT)/6-THIOGUANINE, Metabolic Activation: RAT, LIVER, S-9, AROCLOR 1254 inactive; negative

CN(C)N=Nc1ccc(Cl)cc1
inactive: Test System: AMES SALMONELLA TYPHIMURIUM, Strain/Indicator: TA92, Metabolic Activation: MOUSE, LIVER, S-9, POLYCHLORINATED BIPHENYLS, Method: PREINCUBATION inactive; negative | Test System: AMES SALMONELLA TYPHIMURIUM, Strain/Indicator: TA92, Metabolic Activation: MOUSE, LIVER, S-9, POLYCHLORINATED BIPHENYLS, Method: STANDARD PLATE inactive; negative | Test System: AMES SALMONELLA TYPHIMURIUM, Strain/Indicator: TA92, Metabolic Activation: NONE, Method: STANDARD PLATE inactive; negative | Test System: AMES SALMONELLA TYPHIMURIUM, Strain/Indicator: TA97, Metabolic Activation: NONE, Method: STANDARD PLATE inactive; negative | Test System: AMES SALMONELLA TYPHIMURIUM, Strain/Indicator: TA100, Metabolic Activation: MOUSE, LIVER, S-9, POLYCHLORINATED BIPHENYLS, Method: STANDARD PLATE inactive; negative | [3] inactive; negative | Test System: AMES SALMONELLA TYPHIMURIUM, Strain/Indicator: TA1535, Metabolic Activation: MOUSE, LIVER, S-9, POLYCHLORINATED BIPHENYLS, Method: STANDARD PLATE inactive; negative | [5] inactive; negative | [9] inactive; negative
active: Test System: AMES SALMONELLA TYPHIMURIUM, Strain/Indicator: G46, Metabolic Activation: RAT, LIVER, S-9, PHENOBARBITAL, Method: STANDARD PLATE active; positive | Test System: AMES SALMONELLA TYPHIMURIUM, Strain/Indicator: TA97, Metabolic Activation: MOUSE, LIVER, S-9, POLYCHLORINATED BIPHENYLS, Method: PREINCUBATION active; positive | Test System: AMES SALMONELLA TYPHIMURIUM, Strain/Indicator: TA97, Metabolic Activation: MOUSE, LIVER, S-9, POLYCHLORINATED BIPHENYLS, Method: STANDARD PLATE active; positive | Test System: AMES SALMONELLA TYPHIMURIUM, Strain/Indicator: TA98, Metabolic Activation: MOUSE, LIVER, S-9, POLYCHLORINATED BIPHENYLS, Method: PREINCUBATION active; positive | Test System: AMES SALMONELLA TYPHIMURIUM, Strain/Indicator: TA98, Metabolic Activation: MOUSE, LIVER, S-9, POLYCHLORINATED BIPHENYLS, Method: STANDARD PLATE active; positive | [1] active; positive | Test System: AMES SALMONELLA TYPHIMURIUM, Strain/Indicator: TA100, Metabolic Activation: MOUSE, LIVER, S-9, POLYCHLORINATED BIPHENYLS, Method: PREINCUBATION active; positive | Test System: AMES SALMONELLA TYPHIMURIUM, Strain/Indicator: TA1535, Metabolic Activation: MOUSE, LIVER, S-9, POLYCHLORINATED BIPHENYLS, Method: PREINCUBATION active; positive | Test System: AMES SALMONELLA TYPHIMURIUM, Strain/Indicator: TA1537, Metabolic Activation: MOUSE, LIVER, S-9, POLYCHLORINATED BIPHENYLS, Method: PREINCUBATION active; positive | Test System: AMES SALMONELLA TYPHIMURIUM, Strain/Indicator: TA1537, Metabolic Activation: MOUSE, LIVER, S-9, POLYCHLORINATED BIPHENYLS, Method: STANDARD PLATE active; positive | [7] active; positive | Test System: AMES SALMONELLA TYPHIMURIUM, Strain/Indicator: TA1538, Metabolic Activation: MOUSE, LIVER, S-9, POLYCHLORINATED BIPHENYLS, Method: PREINCUBATION active; positive | Test System: AMES SALMONELLA TYPHIMURIUM, Strain/Indicator: TA1538, Metabolic Activation: MOUSE, LIVER, S-9, POLYCHLORINATED BIPHENYLS, Method: STANDARD PLATE active; positive

CC(S)C(=O)NCC(=O)O (configuration not stated)
inactive: [1] inactive; negative | [2] inactive; negative | [3] inactive; negative | [4] inactive; negative | [5] inactive; negative | [6] inactive; negative | [7] inactive; negative | [8] inactive; negative | [9] inactive; negative | [10] inactive; negative
